Laboratory results from publication PMC10830635, “In vitro cytotoxicity of Withania somnifera (L.) roots and fruits on oral squamous cell carcinoma cell lines: a study supported by flow cytometry, spectral, and computational investigations” (Frontiers in Pharmacology, 2024).
Where two headings read alike, the source gives them in different places. *1 amine or outer side, *2 acyl side, *3 side chain or, on linkers, in order; H or OH if unused. Where a SMILES comes first, the peptide text is derived from it. Bridges are numbered along the chain shown (N, C = ends). Roman numbers before positions name the chains, in order. [ ]: non-standard residue; d: D form. Actinocin(9to1) = Cc1c2oc3c(C)ccc(C(=O)[*:1])c3nc-2c(C(=O)[*:2])c(N)c1=O; NMeV = CN[C@H](C(=O)O)C(C)C; Sar = CNCC(=O)O

Key:
[1] = system: HSC-2 (human squamous carcinoma, derived from tongue); assay: MTT cytotoxicity assay, HSC-2; format: cell-based; settings: HSC-2, 48 h, read-out: CC50 HSC-2
Method: (§1) The cancer cell lines (HSC-2, HSC-3, HSC-4), as well as the normal cells (HGF, HPLF, and HPC), were cultured at 37°C in a humidified 5% CO2 incubator in DMEM medium enriched with streptomycin sulphate (100 μg/mL), 10% heat-inactivated FBS, and penicillin G (100 units/mL). For cytotoxicity testing, cells were then garnered using 0.25% trypsin–0.025% sodium edetate in a phosphate-buffered saline lacking Ca^2+/Mg^2+ [PBS (−)]. The cells were cultured in 96-well microplates at a cell count of 3 ×10^3 cells/100 μL. After 2 days, the exhausted medium was replaced with fresh medium containing the different concentrations of sample to be tested, in triplicate. The initial sample concentration was set at 5 mg/mL in DMSO. The first concentration examined was thus 500 μg/mL, which was then successively diluted 2-fold. In the wells assigned for control, equal volumes of the DMSO were added to the cells, where the toxic effects of DMSO could be subtracted. The cell growth in the incubator was continued for another 2 days. To determine the cell viability, the colorimetric MTT method was employed as described in our preceding article ([Orabi et al., 2021]). The concentration of cytotoxicity 50% (CC50) was determined from the dose-response curve. The mean CC50 value for each type of cell was calculated from triplicate assays ([Kantoh et al., 2010]).

[2] = system: HSC-4 (human squamous carcinoma, derived from tongue); assay: MTT cytotoxicity assay, HSC-4; format: cell-based; settings: HSC-4, 48 h, read-out: CC50 HSC-4
Method: as §1

[3] = MTT cytotoxicity assay, normal oral cells together (mean); format: cell-based; settings: human; mean of HGF, HPLF, HPC; read-out: CC50 Mean (D), human normal oral cells
Method: The cancer cell lines (HSC-2, HSC-3, HSC-4), as well as the normal cells (HGF, HPLF, and HPC), were cultured at 37°C in a humidified 5% CO2 incubator in DMEM medium enriched with streptomycin sulphate (100 μg/mL), 10% heat-inactivated FBS, and penicillin G (100 units/mL). For cytotoxicity testing, cells were then garnered using 0.25% trypsin–0.025% sodium edetate in a phosphate-buffered saline lacking Ca^2+/Mg^2+ [PBS (−)]. The cells were cultured in 96-well microplates at a cell count of 3 ×10^3 cells/100 μL. After 2 days, the exhausted medium was replaced with fresh medium containing the different concentrations of sample to be tested, in triplicate. The initial sample concentration was set at 5 mg/mL in DMSO. The first concentration examined was thus 500 μg/mL, which was then successively diluted 2-fold. In the wells assigned for control, equal volumes of the DMSO were added to the cells, where the toxic effects of DMSO could be subtracted. The cell growth in the incubator was continued for another 2 days. […] The concentration of cytotoxicity 50% (CC50) was determined from the dose-response curve.

[4] = system: OSCC cell lines (Ca9-22 + HSC-2 + HSC-3 + HSC-4); assay: MTT cytotoxicity assay, OSCC cell lines together (mean, TS, PSE); settings: for CC50: Homo sapiens, read-out: CC50 Mean (B), human oral squamous cell carcinoma cell lines; for Type of growth inhibition (cytotoxic or cytostatic) from dose-response curve: OSCC cell lines and normal oral cells, Figure 1
Method: (§2) The cancer cell lines (HSC-2, HSC-3, HSC-4), as well as the normal cells (HGF, HPLF, and HPC), were cultured at 37°C in a humidified 5% CO2 incubator in DMEM medium enriched with streptomycin sulphate (100 μg/mL), 10% heat-inactivated FBS, and penicillin G (100 units/mL). For cytotoxicity testing, cells were then garnered using 0.25% trypsin–0.025% sodium edetate in a phosphate-buffered saline lacking Ca^2+/Mg^2+ [PBS (−)]. The cells were cultured in 96-well microplates at a cell count of 3 ×10^3 cells/100 μL. After 2 days, the exhausted medium was replaced with fresh medium containing the different concentrations of sample to be tested, in triplicate. The initial sample concentration was set at 5 mg/mL in DMSO. The first concentration examined was thus 500 μg/mL, which was then successively diluted 2-fold. In the wells assigned for control, equal volumes of the DMSO were added to the cells, where the toxic effects of DMSO could be subtracted. The cell growth in the incubator was continued for another 2 days. […] The concentration of cytotoxicity 50% (CC50) was determined from the dose-response curve. […] The changes in cell morphology were detected using light microscopy (EVOSfl; ThermoFisher Scientific, Waltham, MA, United States).
(§3) The following equation was used to calculate tumor specificity (TS): TS = average CC50 toward the normal cells (HGF + HPLF + HPC)/average CC50 toward the tumor cell lines (Ca9-22 + HSC-2 + HSC-3 + HSC-4), as indicated by D/B (Table 1). To compare the sensitivity of the cancer cells (Ca9-22) with that of the normal cells (HGF), being generated from the same tissue, the equation TS = CC50 against HGF/CC50 against Ca9-22 was used (see C/A in Table 1).

[5] = MTT cytotoxicity assay, HPLF; format: cell-based; settings: human, normal periodontal ligament fibroblasts (HPLF), normal cells, 2 days exposure
Method: as §1

[6] = system: Ca9-22 (human gingival squamous carcinoma cell line); assay: MTT cytotoxicity assay, Ca9-22; settings: for CC50: Homo sapiens, Ca9-22, 48 h, read-out: CC50 Ca9-22 (A)
Method: as §2, §3

[7] = system: HSC-3 (human squamous carcinoma, derived from tongue); assay: MTT cytotoxicity assay, HSC-3; format: cell-based; settings: HSC-3, 48 h, read-out: CC50 HSC-3
Method: as §1

[8] = MTT cytotoxicity assay, HGF; format: cell-based; settings: human, normal gingival fibroblasts (HGF), normal cells, 2 days exposure
Method: as §1

[9] = MTT cytotoxicity assay, HPC; format: cell-based; settings: human, normal pulp cells (HPC), 2 days exposure
Method: For cytotoxicity testing, cells were then garnered using 0.25% trypsin–0.025% sodium edetate in a phosphate-buffered saline lacking Ca^2+/Mg^2+ [PBS (−)]. The cells were cultured in 96-well microplates at a cell count of 3 ×10^3 cells/100 μL. After 2 days, the exhausted medium was replaced with fresh medium containing the different concentrations of sample to be tested, in triplicate. The initial sample concentration was set at 5 mg/mL in DMSO. The first concentration examined was thus 500 μg/mL, which was then successively diluted 2-fold. In the wells assigned for control, equal volumes of the DMSO were added to the cells, where the toxic effects of DMSO could be subtracted. The cell growth in the incubator was continued for another 2 days. To determine the cell viability, the colorimetric MTT method was employed as described in our preceding article ([Orabi et al., 2021]). The concentration of cytotoxicity 50% (CC50) was determined from the dose-response curve. The mean CC50 value for each type of cell was calculated from triplicate assays ([Kantoh et al., 2010]). The changes in cell morphology were detected using light microscopy (EVOSfl; ThermoFisher Scientific, Waltham, MA, United States).

[10] = system: Ca9-22 cells; assay: Cell cycle analysis (PI staining, cell sorter) and cell morphology; format: cell-based, human; settings: Ca9-22, 20 h, 1 µM
Method: The changes in cell morphology were detected using light microscopy (EVOSfl; ThermoFisher Scientific, Waltham, MA, United States).
Ca9-22 cells (3 × 10^4/mL, 10 mL) were added to a 10-cm dish and allowed to fully attach to the dish over the course of 48 h of incubation. […] These cells were mixed and then washed once with PBS (−). Both cell groups were fixed for 1 h on ice with 1% paraformaldehyde. Fixed cells were then washed twice with PBS (−) and treated with 400 μL of 200 μg/mL RNase A (which was preheated for 10 min at 100°C to inactivate DNase) to degrade RNA. The cells were then washed twice with PBS (−) and stained for 15 min with 0.01% propidium iodide (PI) in the presence of 0.01% NP-40 in PBS (−) to prevent cell aggregation. After filtering through Falcon® cell strainers (nylon mesh, pore size: 40 μm) (Corning, NY, United States) to remove aggregated cells, PI-stained cells were then subjected to cell sorting using (SH800 Series; SONY Imaging Products and Solutions Inc., Kanagawa, Japan), and finally analyzed with the Cell Sorter Software version 2.1.2.

SMILES	CC50 ([1]; MTT, 2 days exposure)	CC50 ([2]; MTT, 2 days exposure)	CC50 at 2 days [3]	CC50 [4]	Type of growth inhibition (cytotoxic or cytostatic) from dose-response curve [4]	CC50 at 2 days [5]	CC50 [6]	CC50 ([7]; MTT, 2 days exposure)	CC50 at 2 days [8]	CC50 at 2 days [9]	Morphological change of cells [10]	CC50 [1]	CC50 [2]	TS (tumor selectivity) C/A ([6]; CC50 HGF / CC50 Ca9-22)	CC50 [7]
O=c1[nH]cc(F)c(=O)[nH]1 [5-FU, 5-fluorouracil]	292 µM	182 µM	> 1000 µM	> 386 µM	Cytostatic	> 1000 µM	69.4 µM	> 1000 µM	> 1000 µM	> 1000 µM					
Cc1c2oc3c(C)ccc(C(=O)N[C@@H]4C(=O)N[C@H](C(C)C)C(=O)N5CCC[C@H]5C(=O)N(C)CC(=O)N(C)[C@@H](C(C)C)C(=O)O[C@@H]4C)c3nc-2c(C(=O)N[C@@H]2C(=O)N[C@H](C(C)C)C(=O)N3CCC[C@H]3C(=O)N(C)CC(=O)N(C)[C@@H](C(C)C)C(=O)O[C@@H]2C)c(N)c1=O [Act.D, actinomycin D] (I: T[dV]P[Sar][NMeV] / II: T[dV]P[Sar][NMeV]; ester I:1-I:C, II:1-II:C; linker I:N-II:N via Actinocin(9to1))											cell shrinkage				
COc1cccc2c1C(=O)c1c(O)c3c(c(O)c1C2=O)C[C@@](O)(C(=O)CO)C[C@@H]3O[C@H]1C[C@H](N)[C@H](O)[C@H](C)O1 [Doxorubicin, doxorubicin]	0.09 µM	< 0.078 µM	> 10 µM	< 0.13 µM	Cytotoxic	> 10 µM	0.18 µM	0.16 µM	> 10 µM	> 10 µM					
N[C@@H](Cc1ccc(N(CCCl)CCCl)cc1)C(=O)O [Melphalan, melphalan]			> 180 µM	17.8 µM	Cytotoxic	> 200 µM	36.3 µM		180 µM	159 µM		11 µM	9.9 µM	5.0	14.1 µM
